Measured values from patent publication US20260130933A1, “PHARMACEUTICAL COMPOSITION FOR PREVENTION OR TREATMENT OF NEPHROPATHY AND/OR DIABETES MELLITUS, COMPRISING ENAVOGLIFLOZIN” (DAEWOONG PHARMACEUTICAL CO., LTD., priority 2022, published 2026).

Experiment: Example 2: phase 3 trial, enavogliflozin 0.3 mg vs dapagliflozin 10 mg once a day for 24 weeks added to metformin in patients with type 2 diabetes (same efficacy, exploratory and safety endpoints)
Format: in vivo, human
Settings: for Non-inferiority (UCI < 0.35%): HbA1c change at week 24, vs dapagliflozin
Protocol: Subjects who met the inclusion/exclusion criteria were administered a placebo of the clinical trial drug under single-blind (subject blinding) conditions during a 2-week run-in period while continuing to receive metformin. […] The randomized subjects were administered two tablets of the clinical trial drug for each administration group once a day, and then visited the institution at weeks 6, 12, 18, and 24 during the 24-week administration period to conduct efficacy and safety evaluations.
• 1. Change in HbA1c at week 24 after administration of clinical trial drug compared to Visit 2 (randomization)
• 1. Change in HbA1c at each time point of weeks 6, 12, and 18 after administration of clinical trial drug compared to Visit 2 (randomization) • 2. Change in FPG at each time point of weeks 6, 12, 18, and 24 after administration of clinical trial drug compared to Visit 2 (randomization) • 3. Proportion of subjects achieving HbA1c<7% at each time point of weeks 6, 12, 18, and 24 after administration of clinical trial drug • 4. Proportion of subjects achieving HbA1c<6.5% at each time point of weeks 6, 12, 18, and 24 after administration of clinical trial drug • 5. Proportion of subjects achieving therapeutic response (HbA1c change (HbA1c at Visit 2-HbA1c at each evaluation time point)>0.5% or HbA1c<7% at each evaluation time point compared to Visit 2 (randomization)) at each time point of weeks 6, 12, 18 and 24 after administration of clinical trial drug
• 1. Change in fasting c-peptide at each time point of weeks 6, 12, 18, and 24 after administration of clinical trial drug compared to Visit 2 (randomization) • 2. Change in body weight at each time point of weeks 6, 12, 18, and 24 after administration of clinical trial drug compared to Visit 2 (randomization) • 3. Change in fasting lipid concentration (total cholesterol, LDL-C, HDL-C, and triglycerides) at each time point of weeks 6, 12, 18, and 24 after administration of clinical trial drug compared to Visit 2 (randomization) • 4. Changes in systolic or diastolic blood pressure at each time point of weeks 6, 12, 18, and 24 after administration of clinical trial drug compared to Visit 2 (randomization) • 5. Changes in β-cell function and insulin resistance measured by HOMA-β and HOMA-IR at each time point of weeks 6, 12, 18, and 24 after administration of clinical trial drug compared to Visit 2 (randomization) • 6. Changes in renal function-related indicators (UACR, UGCR) measured by UACR at each time point of weeks 6, 12, 18, and 24 after administration of clinical trial drug compared to Visit 2 (randomization) • 7. Changes in obesity-related indicators (adiponectin, leptin) at each time point of weeks 6, 12, 18, and 24 after administration of clinical trial drug compared to Visit 2 (randomization)

[1] = Baseline, modified per-protocol set 1, enavogliflozin 0.3 mg, dapagliflozin 10 mg
[2] = Baseline, per-protocol set, enavogliflozin 0.3 mg, dapagliflozin 10 mg
[3] = Week 6, PPS, enavogliflozin minus dapagliflozin

In the case of `OC[C@H]1O[C@@H](c2cc(Cc3ccc(C4CC4)cc3)c(Cl)c3c2CCO3)[C@H](O)[C@@H](O)[C@@H]1O` [Enavogliflozin, (2S,3R,4R,5S,6R)-2-(7-chloro-6 (4-cyclopropylbenzyl)-2,3-dihydrobenzofuran-4-yl)-6-(hydroxymethyl)tetrahydro-2H-pyran-3,4,5-triol], the “Incidence of serious adverse drug reactions” value (24 weeks) is reported as 1 case, the “Incidence of adverse events or serious adverse events between the test group and the control” value (24 weeks, vs dapagliflozin) is reported as “no statistically significant differences” and the Adiponectin, Mean (SD) (Baseline, PPS) is reported as 6.96 µg/mL. The Adiponectin, Median (Baseline, PPS) was 5.99 µg/mL, the “HOMA-IR, Mean (SD)” value (Baseline, PPS) was 3.45 and the “HOMA-IR, Median” value (Baseline, PPS) was 2.67. The “HOMA-β, Mean (SD)” value (Baseline, PPS) was 45.53, the “HOMA-β, Median” value (Baseline, PPS) was 35.00 and the “Leptin, Mean (SD)” value (Baseline, PPS) was 12.21 ng/mL. The “Leptin, Median” value (Baseline, PPS) was 8.00 ng/mL, the “UACR, Mean (SD)” value (Baseline, PPS) was 38190 mg/kg and the “UACR, Median” value (Baseline, PPS) was 10.10 g/kg. The “UGCR, Mean (SD)” value (Baseline, PPS) was 1.54 mg/mg, the “UGCR, Median” value (Baseline, PPS) was 0.14 mg/mg and the “HDL-C, Mean (SD)” value (Baseline, mPPS1) was 50.94(10.85) mg/dL. The “HDL-C, Median” value (Baseline, mPPS1) was 50.00 mg/dL, the “LDL-C, Mean (SD)” value (Baseline, mPPS1) was 86.52(30.53) mg/dL and the “LDL-C, Median” value (Baseline, mPPS1) was 83.00 mg/dL. The “Triglycerides, Mean (SD)” value (Baseline, mPPS1) was 122.10(85.91) mg/dL, the “Triglycerides, Median” value (Baseline, mPPS1) was 101.00 mg/dL and the “Diastolic blood pressure, Mean (SD)” value (Baseline, mPPS2) was 77.04 mmHg. The “Diastolic blood pressure, Median” value (Baseline, mPPS2) was 77.00 mmHg, the “Systolic blood pressure, Mean (SD)” value (Baseline, mPPS2) was 129.72(13.64) mmHg and the “Systolic blood pressure, Median” value (Baseline, mPPS2) was 130.00 mmHg. The “fasting Total cholesterol, Mean (SD)” value [1] was 151.43(32.91) mg/dL, the “fasting Total cholesterol, Median” value [1] was 150.00 mg/dL and the “FPG, Mean (SD)” value [2] was 145.35 mg/dL. For the same compound, the “FPG, Median” value [2] was 147.00 mg/dL, the “HbA1c, Mean (SD)” value [2] was 7.75% and the “HbA1c, Median” value [2] was 7.49%. The “body weight, Mean (SD)” value [2] was 70.17(11.06) kg, the “body weight, Median” value [2] was 67.40 kg and the “fasting c-peptide, Mean (SD)” value [2] was 0.72(0.29) ng/mL. The “fasting c-peptide, Median” value [2] was 0.66 ng/mL, the “Non-inferiority (UCI < 0.35%)” value was “Yes” and the “Non-inferiority (UCI < 0.35%)” value (listed as enavogliflozin) was “not inferior”. It also gave an Adiponectin change from baseline, ANCOVA LS mean (SE) (Week 6, PPS) of 0.92 µg/mL, an Adiponectin change from baseline, Mean (SD) (Week 6, PPS) of 0.84 µg/mL and an Adiponectin change from baseline, Median (Week 6, PPS) of 0.58 µg/mL. The Adiponectin, Mean (SD) (Week 6, PPS) was 7.8 µg/mL, the Adiponectin, Median (Week 6, PPS) was 6.87 µg/mL and the “HOMA-IR change from baseline, ANCOVA LS mean (SE)” value (Week 6, PPS) was −1.47. The “HOMA-IR change from baseline, Mean (SD)” value (Week 6, PPS) was −1.35, the “HOMA-IR change from baseline, Median” value (Week 6, PPS) was −0.91 and the “HOMA-IR, Mean (SD)” value (Week 6, PPS) was 2.10. The “HOMA-IR, Median” value (Week 6, PPS) was 1.72, the “HOMA-β change from baseline, ANCOVA LS mean (SE)” value (Week 6, PPS) was 7.22 and the “HOMA-β change from baseline, Mean (SD)” value (Week 6, PPS) was 5.87. The “HOMA-β change from baseline, Median” value (Week 6, PPS) was 8.10, the “HOMA-β, Mean (SD)” value (Week 6, PPS) was 51.39 and the “HOMA-β, Median” value (Week 6, PPS) was 43.00. The “Leptin change from baseline, ANCOVA LS mean (SE)” value (Week 6, PPS) was -2.43 ng/mL, the “Leptin change from baseline, Mean (SD)” value (Week 6, PPS) was -2.54 ng/mL and the “Leptin change from baseline, Median” value (Week 6, PPS) was -1.36 ng/mL. The “Leptin, Mean (SD)” value (Week 6, PPS) was 9.66 ng/mL, the “Leptin, Median” value (Week 6, PPS) was 5.99 ng/mL and the “UACR change from baseline, ANCOVA LS mean (SE)” value (Week 6, PPS) was -12.75 g/kg. For the same compound, the “UACR change from baseline, Mean (SD)” value (Week 6, PPS) was -11440 mg/kg, the “UACR change from baseline, Median” value (Week 6, PPS) was 0.00 g/kg and the “UACR, Mean (SD)” value (Week 6, PPS) was 26760 mg/kg. The “UACR, Median” value (Week 6, PPS) was 11.40 g/kg, the “UGCR change from baseline, ANCOVA LS mean (SE)” value (Week 6, PPS) was 65.72 mg/mg and the “UGCR change from baseline, Mean (SD)” value (Week 6, PPS) was 63.13 mg/mg. The “UGCR change from baseline, Median” value (Week 6, PPS) was 57.91 mg/mg, the “UGCR, Mean (SD)” value (Week 6, PPS) was 64.66 mg/mg and the “UGCR, Median” value (Week 6, PPS) was 58.45 mg/mg. The “HOMA-IR change from baseline, LS mean difference” value [3] was −0.16, the “HOMA-β change from baseline, LS mean difference” value [3] was 9.01 and the “UACR change from baseline, LS mean difference” value [3] was -20.88 g/kg.
